Measurements as given in patent publication US11642336B2, “5-HT2A agonists for use in treatment of depression” (priority 2019, dated 2023).
Where a name gives a salt, the structure may show the parent alone. Read-outs that look alike come from different tables or passages of the source. Marks after values point to notes of the source that are not given here.

Assays:
human 5-HT2A = human 5-HT2A (Homo sapiens (Human), UniProt P28223); experiment: cell-based; type: cell-based; conditions: for Selectivity EC50 5-HT2C/EC50 5-HT2A: Ca2+/Fluo-4 assay, bounds are conservative estimates; for EC50: agonist potency, n = 3-4; for loss of potency at 5-HT2A compared to compound 8 (factor): nitrogen substituents (tertiary amines)
5-HT2C = 5-HT2C (Homo sapiens (Human), UniProt P28335); experiment: Ca2+/Fluo-4 assay, stable h5-HT2C-HEK293 cell line; type: cell-based; conditions: for 5-HT2C Rmax ± S.E.M: % of the Rmax of 5-HT; for EC50: agonist potency, n = 3-4; for 5-HT2C agonist activity (n.a./w.a.): tested up to 50 μM;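 as to all read-outs here: Agonist-induced intracellular Ca2+ rise read by Fluo-4 fluorescence in HEK293 cells stably expressing the human 5-HT2C receptor, each compound run in duplicate on three or more occasions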
[1] = read-out: 5-HT2A [pEC50 ± S.E.M.] (converted)
[2] = read-out: 5-HT2C [pEC50 ± S.E.M.] (converted)

Sequence of 5-HT2C (P28335 whole entry, looked up): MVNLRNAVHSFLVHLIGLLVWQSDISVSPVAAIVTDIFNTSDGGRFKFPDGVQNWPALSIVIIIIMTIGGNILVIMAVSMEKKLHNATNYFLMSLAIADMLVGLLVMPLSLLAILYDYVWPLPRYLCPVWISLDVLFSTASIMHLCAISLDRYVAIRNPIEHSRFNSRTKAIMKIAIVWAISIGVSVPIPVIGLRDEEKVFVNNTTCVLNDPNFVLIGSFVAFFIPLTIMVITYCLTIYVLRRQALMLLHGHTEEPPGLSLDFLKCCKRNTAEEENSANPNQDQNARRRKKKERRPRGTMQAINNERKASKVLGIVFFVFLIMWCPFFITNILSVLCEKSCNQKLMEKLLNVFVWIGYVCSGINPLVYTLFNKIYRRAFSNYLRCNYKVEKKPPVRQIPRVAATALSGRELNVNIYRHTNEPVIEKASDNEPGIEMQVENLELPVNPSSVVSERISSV

| Structure (SMILES) | 5-HT2A Rmax ± S.E.M (human 5-HT2A; % of the Rmax of 5-HT) | Selectivity EC50 5-HT2C/EC50 5-HT2A (human 5-HT2A) | EC50 (human 5-HT2A; read-out: 5-HT2A EC50) [nM] | EC50 (human 5-HT2A; [1]) [nM] | 5-HT2C Rmax ± S.E.M (5-HT2C) | EC50 (5-HT2C; read-out: 5-HT2C EC50) [nM] | other results |
| --- | --- | --- | --- | --- | --- | --- | --- |
| COc1cc([C@@H]2CCCNC2)ccc1C(F)(F)F.Cl [Compound 49, (S)-3-(3-methoxy-4-(trifluoromethyl)phenyl)piperidine Hydrochloride] | 65 ± 3% | 0.51 | 2500 | 2450 | 35 ± 3% | 1300 | EC50 (5-HT2C; [2]): 1260 nM |
| COc1cc(CC(C)N)c(OC)cc1I (stereo not shown) [drawing 22, reference compound] |  |  |  |  | 83 ± 8% |  | 5-HT2A Rmax ± S.E.M (human 5-HT2A): 88 ± 7%; EC50 (5-HT2C; 5-HT2C [pEC50 ± S.E.M.]): 3.39 nM |
| CCSc1cc([C@H]2CCCNC2)c(OC)cc1C(F)(F)F.Cl [Compound 46, (R)-3-(2-methoxy-5-(ethylthio)-4-(trifluoromethyl)phenyl)piperidine hydrochloride] | 97 ± 2% | 7.4 | 150 | 145 | 53 ± 5% | 1100 | EC50 (5-HT2C; [2]): 1070 nM |
| CCN1CCC[C@@H](c2cc(OC)c(C(F)(F)F)cc2OC)C1 [Compound 59, (S)-3-(2,5-dimethoxy-4-(trifluoromethyl)phenyl)-1-ethylpiperidine] | 44 ± 3% | >30^e | 1500 |  |  |  | loss of potency at 5-HT2A compared to compound 8 (factor) (human 5-HT2A): ~80; 5-HT2C agonist activity (n.a./w.a.) (5-HT2C): w.a. |
| COc1cc([C@H]2CCCNC2)c(OC)cc1Cl [Compound 9, (R)-3-(4-Chloro-2,5-dimethoxyphenyl)piperidine] |  |  | 690 |  |  | 1800 | EC50 (5-HT2C; [2]): 1780 nM |
| COc1cc([C@H]2CCCNC2)c(OC)cc1C [Compound 23, (R)-3-(2,5-dimethoxy-4-methylphenyl)piperidine hydrochloride] |  |  | 260 | 263 |  | 1200 |  |
| COc1cc(C(F)(F)F)c(OC)cc1[C@@H]1CCCN(C)C1 [Compound 61, (S)-3-(2,5-dimethoxy-4-(trifluoromethyl)phenyl)-1-methylpiperidine] | 19 ± 2% |  | 390 | 398 |  | 920 | loss of potency at 5-HT2A compared to compound 8 (factor) (human 5-HT2A): ~20 |
| COc1cc(C(F)(F)F)ccc1[C@H]1CCCNC1 [Compound 52, (R)-3-(2-methoxy-4-(trifluoromethyl)phenyl)piperidine hydrochloride] | 77 ± 2% |  | 480 |  |  | 1400 |  |
| COc1cc([C@H]2CCCNC2)c(OC)cc1I [Compound 13, (R)-3-(4-Iodo-2,5-dimethoxyphenyl)piperidine] |  |  | 260 | 263 |  |  |  |
| COc1cc([C@H]2CCCNC2)c(OC2CC2)cc1C(F)(F)F [Compound 54, (R)-3-(2-cyclopropoxy-5-methoxy-4-(trifluoromethyl)phenyl)piperidine hydrochloride] | 76 ± 4% |  | 1800 | 1780 | ~46-63^c % | 3000 to 10000 |  |
| COc1cc(C(F)(F)F)c(OC)cc1[C@@H]1CCNC1 [Compound 6, (S)-3-(2,5-dimethoxy-4-(trifluoromethyl)phenyl)pyrrolidine] | 35 ± 4% | 3.5 | 5.4 |  | 28 ± 2% |  | EC50 (5-HT2C; [2]): 19.1 nM |
| CCOc1cc([C@H]2CCCNC2)c(OC)cc1C(F)(F)F.Cl [Compound 19, (R)-3-(5-ethoxy-2-methoxy-4-(trifluoromethyl)phenyl)piperidine hydrochloride] | 86 ± 6% |  | 320 | 316 |  |  |  |
| COc1cc(C2CNC2)c(OC)cc1Br.Cl [Compound 1, 3-(4-bromo-2,5-dimethoxyphenyl)azetidine hydrochloride] | 97 ± 3% | 3.6 |  | 1.58 | 90 ± 3% | 5.8 |  |
| CCOc1cc([C@H]2CCCNC2)c(OC)cc1CC.Cl [Compound 33, (R)-3-(5-ethoxy-4-ethyl-2-methoxyphenyl)piperidine hydrochloride] | 89 ± 4% | >10^e | 1100 | 1120 |  |  |  |
| CCSc1cc(OC)c([C@H]2CCCNC2)cc1OC [Compound 27, (R)-3-(2,5-dimethoxy-4-(ethylthio)phenyl)piperidine hydrochloride] |  |  | 190 | 186 |  | 780 |  |
| COc1cc([C@H]2CCCNC2)c(OC)cc1Br [Compound 11, (R)-3-(4-bromo-2,5-dimethoxyphenyl)piperidine] |  |  | 370 |  |  | 1900 |  |
| COc1cc([C@H]2CCCNC2)c(OC)cc1C#N [Compound 15, (R)-2,5-dimethoxy-4-(piperidin-3-yl)benzonitrile] |  |  | 2200 |  | ~13-17^c % | ~10000 |  |

| Structure (SMILES) | 5-HT2A Rmax ± S.E.M (human 5-HT2A; % of the Rmax of 5-HT) | Selectivity EC50 5-HT2C/EC50 5-HT2A (human 5-HT2A) | EC50 (human 5-HT2A; read-out: 5-HT2A EC50) [nM] | EC50 (human 5-HT2A; [1]) [nM] | 5-HT2C Rmax ± S.E.M (5-HT2C) | EC50 (5-HT2C; read-out: 5-HT2C EC50) [nM] | other results |
| --- | --- | --- | --- | --- | --- | --- | --- |
| Br.COc1cc([C@@H]2CCNC2)c(OC)cc1Br [Compound 4, (S)-3-(4-bromo-2,5-dimethoxyphenyl)pyrrolidine Hydrobromide] | 39 ± 4% | 2.3 | 7.7 |  | 16 ± 3% |  | EC50 (5-HT2C; [2]): 17.8 nM |
| COc1cc([C@H]2CCCNC2)ccc1C(F)(F)F.Cl [Compound 48, (R)-3-(3-methoxy-4-(trifluoromethyl)phenyl)piperidine hydrochloride] | 68 ± 7% | >50^e | 1800 |  |  |  |  |
| COc1cc(C(F)(F)F)c(OC)cc1[C@H]1CCCN(C)C1 [Compound 60, (R)3-(2,5-dimethoxy-4-(trifluoromethyl)phenyl)-1-methylpiperidine] | 53 ± 8% |  | 1100 |  |  |  | 5-HT2C agonist activity (n.a./w.a.) (5-HT2C): w.a. |
| CCN1CCC[C@H](c2cc(OC)c(C(F)(F)F)cc2OC)C1 [Compound 58, (R)-3-(2,5-dimethoxy-4-(trifluoromethyl)phenyl)-1-ethylpiperidine] |  |  |  |  |  |  | 5-HT2A agonist activity (n.a./w.a.) (human 5-HT2A; tested up to 50 μM): w.a. [@ 2-10-50; 5-HT2C agonist activity (n.a./w.a.) (5-HT2C): w.a. |
| CCOc1cc(C(F)(F)F)c(OCC)cc1[C@H]1CCCNC1.Cl [Compound 21, (R)-3-(2,5-diethoxy-4-(trifluoromethyl)phenyl)piperidine hydrochloride] | 69 ± 4% | >10^e | 3000 |  |  |  |  |
| CCOc1cc(C(F)(F)F)c(OC)cc1[C@H]1CCCNC1.Cl [Compound 29, (R)-3-(2-ethoxy-5-methoxy-4-(trifluoromethyl)phenyl)piperidine hydrochloride] | 77 ± 7% |  | 410 |  |  | 2700 | EC50 (5-HT2C; [2]): 2750 nM |
| CCCCc1cc(OC)c([C@H]2CCCNC2)cc1OC [Compound 56, (R)-3-(4-butyl-2,5-dimethoxyphenyl)piperidine hydrochloride] |  |  | 340 | 347 |  | 1600 |  |
| COc1cc([C@H]2CCCNC2)c(OC)cc1SC [Compound 17, (R)-3-(2,5-dimethoxy-4-(methylthio)phenyl)piperidine hydrochloride] |  |  | 180 | 178 |  | 2300 | EC50 (5-HT2C; [2]): 2340 nM |
| COc1cc(C(F)(F)F)c(SC)cc1[C@H]1CCCNC1.Cl [Compound 44, (R)-3-(2-methoxy-5-(methylthio)-4-(trifluoromethyl)phenyl)piperidine hydrochloride] | 96 ± 6% | 9.3 | 71 |  | 50 ± 2% | 660 |  |
| COc1cc(C(F)(F)F)c(OC)cc1C1CNC1.Cl [Compound 2, 3-(2,5-dimethoxy-4-(trifluoromethyl)phenyl)azetidine Hydrochloride] | 95 ± 2% | 5.2 |  | 1 | 87 ± 4% | 5.2 |  |
| COc1cc([C@H]2CCCNC2)c(OC)cc1SC(C)C [Compound 25, (R)-3-(4-(isopropylthio)-2,5-dimethoxyphenyl)piperidine] |  |  | 290 |  |  |  |  |
| COc1cc(CCNCc2ccccc2O)c(OC)cc1C#N [drawing 23, reference compound] |  |  |  |  | 96 ± 7% |  | EC50 (5-HT2C; 5-HT2C EC50 (nM)): 47 nM |
| CCOc1cc([C@H]2CCCNC2)c(OCC)cc1CC.Cl [Compound 40, (R)-3-(2,5-diethoxy-4-ethylphenyl)piperidine hydrochloride] | ~61-74^c % | >3^e | 7000 to 10000 |  |  |  |  |
| COc1cc([C@H]2CCNC2)c(OC)cc1Br [Compound 3, (R)-3-(4-bromo-2,5-dimethoxyphenyl)pyrrolidine] | 57 ± 3% | 4.9 | 5.3 | 7.76 | 73 ± 3% |  | EC50 (5-HT2C; [2]): 25.7 nM |
| COc1cc(C(F)(F)F)c(F)cc1[C@H]1CCCNC1.Cl [Compound 50, (R)-3-(5-fluoro-2-methoxy-4-(trifluoromethyl)phenyl)piperidine hydrochloride] | 78 ± 6% | 2.8 | 640 |  | 40 ± 8% | 1800 | EC50 (5-HT2C; [2]): 1780 nM |
| CCOc1cc(CC)c(OC)cc1[C@H]1CCCNC1 [Compound 42, (R)-3-(2-ethoxy-4-ethyl-5-methoxyphenyl)piperidine] | 80 ± 9% | >10^e | 1500 |  |  |  |  |
| COc1cc(C(F)(F)F)c(OC)cc1[C@H]1CCCNC1 [Compound 7, (R)-3-(2,5-Dimethoxy-4-(trifluoromethyl)phenyl)piperidine hydrochloride] |  |  |  |  |  | 860 |  |
